These results are taken from patent US7612065B2, “Inhibitors of c-JUN N-terminal kinases (JNK)” (priority 2007, dated 2009).

The structures appear in SMILES notation.

The target in the assay is T1, JNK3 (Homo sapiens, UniProt P53779).
T1 construct: One such construct encodes amino acid residues Ser40-Glu402 of JNK3α1 and is preceded by Met and Gly residues; Met-Gly (initiation methionine plus glycine added for the NcoI site); made in house; host or cells: E. coli BL21 (DE3)
T1 sequence (P53779 40-402): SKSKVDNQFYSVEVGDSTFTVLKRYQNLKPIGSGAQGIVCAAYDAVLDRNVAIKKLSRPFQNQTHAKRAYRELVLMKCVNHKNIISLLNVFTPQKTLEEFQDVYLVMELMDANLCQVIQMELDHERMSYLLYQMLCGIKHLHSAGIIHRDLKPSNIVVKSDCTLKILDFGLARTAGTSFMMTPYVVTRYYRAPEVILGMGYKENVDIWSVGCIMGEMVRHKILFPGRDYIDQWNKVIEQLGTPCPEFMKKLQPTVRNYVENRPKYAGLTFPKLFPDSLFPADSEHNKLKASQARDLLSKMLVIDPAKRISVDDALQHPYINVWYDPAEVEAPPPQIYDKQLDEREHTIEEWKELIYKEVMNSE
Description: JNK inhibition assay: spectrophotometric coupled-enzyme assay with activated JNK3. The class given is biochemical. As to conditions: activated JNK3 10 nM, 10 μM ATP, 200 μM EGF receptor peptide, 30° C., competitive inhibition model. In a few lines:
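Activated (doubly phosphorylated, MKK7(DD)-activated) human JNK3, 10 nM, preincubated 10 min at 30 °C with inhibitor in 0.1 M HEPES pH 7.5, 10 mM MgCl2, 200 μM EGF receptor peptide, PK/LDH-coupled. Started with 10 μM ATP; A340 decrease followed at 30 °C. Ki from competitive inhibition model fit.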
For `O=C1/C(=N\O)c2cc(Cl)ccc2N1Cc1ccc(Cl)cc1` [Compound 3], the Ki was at least 1000 nM.
In the case of `O=C1/C(=N\O)c2cc(Br)ccc2N1Cc1ccccc1` [Compound 23], the Ki was at least 1000 nM.
In the case of `O=C1/C(=N\O)c2ccc(Br)cc2N1Cc1cc(F)cc2c1OCOC2` [Compound 152] it was below 1000 nM; in that of `O=C1/C(=N\O)c2c(C#Cc3ccccc3)cccc2N1Cc1cc(F)cc2c1OCOC2` [Compound 246], at least 1000 nM.
In the case of `O=C(Nc1ccc2c(c1)N(Cc1cc(F)cc3c1OCOC3)C(=O)/C2=N\O)c1cccnc1` [Compound 254] it was below 1000 nM.
`O=C(Nc1ccc2c(c1)N(Cc1cc(F)cc3c1OCOC3)C(=O)/C2=N\O)C1CCCC1` [Compound 225]: the Ki is below 1000 nM.
In the case of `O=C1/C(=N\O)c2ccc(-c3ccccc3)cc2N1Cc1ccccc1-c1ccccc1` [Compound 162] it was at least 1000 nM; in that of `C=Cc1cccc2c1/C(=N/O)C(=O)N2Cc1cc(F)cc2c1OCOC2` [Compound 307], below 1000 nM.
In the case of `O=C(c1ccc(F)cc1)c1ccc2c(c1)/C(=N/O)C(=O)N2Cc1cc(F)cc2c1OCOC2` [Compound 328] it was at least 1000 nM; in that of `O=C(Nc1ccc2c(c1)N(Cc1cc(F)cc3c1OCOC3)C(=O)/C2=N\O)c1cccc(Cl)c1` [Compound 255], below 1000 nM.
In the case of `Cc1cc2c(cc1C(=O)c1ccccc1)/C(=N/O)C(=O)N2Cc1cc(F)cc2c1OCOC2` [Compound 351] it was at least 1000 nM.
Turning to `COc1cc(CN2C(=O)/C(=N\O)c3ccc(C(F)(F)F)cc32)cc(OC)c1` [Compound 164], the Ki is below 1000 nM.
In the case of `O=C1/C(=N\O)c2cc(Br)ccc2N1Cc1ccc(F)cc1` [Compound 24] it was at least 1000 nM; in that of `O=C1/C(=N\O)c2ccccc2N1Cc1cccc(F)c1` [Compound 20], at least 1000 nM; in that of `O=C1/C(=N\O)c2c(-c3ccsc3)cccc2N1Cc1cc(F)cc2c1OCOC2` [Compound 205], at least 1000 nM.
Then `O=C1/C(=N\O)c2cc(NCc3ccc(O)cc3)ccc2N1Cc1cc(F)cc2c1OCOC2` [Compound 304], with at least 1000 nM; and `O=C1/C(=N\O)c2c(-c3cccc(F)c3)cccc2N1Cc1cc(F)cc2c1OCOC2` [Compound 203], with at least 1000 nM; and `O=C(c1ccc2c(c1)N(Cc1cc(F)cc3c1OCOC3)C(=O)/C2=N\O)N1CCOCC1` [Compound 228], with at least 1000 nM.
In the case of `O=C1/C(=N\O)c2cc(Cl)ccc2N1Cc1ccccn1` [Compound 76] it was at least 1000 nM; in that of `CC(C)(C)NC(=O)c1ccc2c(c1)N(Cc1cc(F)cc3c1OCOC3)C(=O)/C2=N\O` [Compound 241], at least 1000 nM.
Turning to `O=C(Nc1ccc2c(c1)N(Cc1cc(F)cc3c1OCOC3)C(=O)/C2=N\O)c1ccc(Cl)c(Cl)c1` [Compound 253], the Ki was at least 1000 nM.
In the case of `COC(=O)c1cccc(CN2C(=O)/C(=N/O)c3ccc(-c4cccc(OC)c4)cc32)c1` [Compound 176] it was at least 1000 nM.
Then `O=C(NCCN1CCOCC1)c1ccc2c(c1)N(Cc1cc(F)cc3c1OCOC3)C(=O)/C2=N\O` [Compound 240], with at least 1000 nM; and `O=C1/C(=N\O)c2c(F)cc(F)cc2N1Cc1cc(F)cc2c1OCOC2` [Compound 286], with below 1000 nM; and `O=C1/C(=N\O)c2ccc(NS(=O)(=O)c3ccc(Cl)cc3)cc2N1Cc1cc(F)cc2c1OCOC2` [Compound 213], with at least 1000 nM.
Then `CC(C)CN1C(=O)/C(=N\O)c2cc(Br)ccc21` [Compound 159], with at least 1000 nM; and `O=C(Nc1ccc2c(c1)N(Cc1cc(F)cc3c1OCOC3)C(=O)/C2=N\O)c1ccccc1Cl` [Compound 342], with below 1000 nM; and `O=C(NCc1ccncc1)c1ccc2c(c1)N(Cc1cc(F)cc3c1OCOC3)C(=O)/C2=N\O` [Compound 238], with at least 1000 nM.
On to `O=C(Nc1ccc2c(c1)N(Cc1cc(F)cc3c1OCOC3)C(=O)/C2=N\O)N1CCOCC1` [Compound 257], for which the Ki is at least 1000 nM.
Then `O=C1/C(=N\O)c2cc(OC(F)(F)F)ccc2N1Cc1cc(F)cc2c1OCOC2` [Compound 108], with at least 1000 nM.
Then `COc1ccc(CN2C(=O)/C(=N\O)c3cc(OC(F)(F)F)ccc32)cc1` [Compound 105], with at least 1000 nM; and `Nc1ccc2c(c1)/C(=N/O)C(=O)N2Cc1cc(F)cc2c1OCOC2` [Compound 285], with at least 1000 nM.
In the case of `O=C1/C(=N\O)c2ccccc2N1Cc1cccc(C(F)(F)F)c1` [Compound 6] it was at least 1000 nM; in that of `COc1cc(CN2C(=O)/C(=N\O)c3ccccc32)cc(OC)c1` [Compound 68], below 1000 nM.
With `O=C1/C(=N\O)c2cc(NCc3ccccc3)ccc2N1Cc1cc(F)cc2c1OCOC2` [Compound 300], the Ki is at least 1000 nM.
In the case of `O=C1/C(=N\O)c2ccccc2N1Cc1cccc(Oc2ccccc2)c1` [Compound 66] it was at least 1000 nM.
In the case of `COC(=O)c1ccc2c(c1)N(Cc1cc(C)cc3c1OCOC3)C(=O)/C2=N\O` [Compound 215] it was below 1000 nM; in that of `Cc1cc(Cl)cc2c1N(Cc1cc(F)cc3c1OCOC3)C(=O)/C2=N\O` [Compound 103], below 1000 nM.
Then `COc1ccc(CCNC(=O)c2ccc3c(c2)N(Cc2cc(F)cc4c2OCOC4)C(=O)/C3=N\O)cc1OC` [Compound 232], with at least 1000 nM.
As for `Cc1ccc2c(c1)/C(=N/O)C(=O)N2Cc1ccc([N+](=O)[O-])cc1` [Compound 39], the Ki was at least 1000 nM.
Then `O=C1/C(=N\O)c2c(-c3cc4ccccc4o3)cccc2N1Cc1cc(F)cc2c1OCOC2` [Compound 206], with at least 1000 nM.
In the case of `O=C1/C(=N\O)c2cc(Cl)ccc2N1Cc1cccc(F)c1` [Compound 50] it was at least 1000 nM; in that of `Cc1cc(Cl)cc2c1N(Cc1ccccn1)C(=O)/C2=N\O` [Compound 104], at least 1000 nM.
As to `CCC(=O)Nc1ccc2c(c1)N(Cc1cc(F)cc3c1OCOC3)C(=O)/C2=N\O` [Compound 344], the Ki was below 1000 nM.
Then `O=C1/C(=N\O)c2cc(-c3ccc(CO)cc3)ccc2N1Cc1cc(F)cc2c1OCOC2` [Compound 283], with at least 1000 nM.
Then `O=C(O)CCc1ccc(-c2ccc3c(c2)N(Cc2cc(F)cc4c2OCOC4)C(=O)/C3=N\O)cc1` [Compound 335], with below 1000 nM.
In the case of `Cc1cccc(CN2C(=O)/C(=N\O)c3cc(F)ccc32)c1` [Compound 57] it was at least 1000 nM.
On to `O=C1/C(=N\O)c2cc(Cl)ccc2N1Cc1ccccc1F` [Compound 51], for which the Ki was at least 1000 nM.
Then `COc1ccc2c(c1)N(Cc1cc(F)cc3c1OCOC3)C(=O)/C2=N\O` [Compound 156], with below 1000 nM; and `CC(C)C(=O)Nc1ccc2c(c1)N(Cc1cc(F)cc3c1OCOC3)C(=O)/C2=N\O` [Compound 261], with below 1000 nM.
In the case of `O=C(Nc1ccc2c(c1)/C(=N/O)C(=O)N2Cc1ccccc1)c1cccc2ccccc12` [Compound 136] it was at least 1000 nM; in that of `O=C(Nc1cccc(F)c1)c1ccc2c(c1)N(Cc1cc(F)cc3c1OCOC3)C(=O)/C2=N\O` [Compound 229], at least 1000 nM; in that of `O=C(O)CCCN(CCCC(=O)O)c1ccc2c(c1)/C(=N/O)C(=O)N2Cc1cc(F)cc2c1OCOC2` [Compound 309], at least 1000 nM.
Turning to `Cc1cccc(CN2C(=O)/C(=N\O)c3cc(Cl)ccc32)c1` [Compound 49], the Ki is at least 1000 nM.
Consider `COc1ccc(-c2nc(CN3C(=O)/C(=N\O)c4cc(F)ccc43)no2)cc1` [Compound 109], for which the Ki is at least 1000 nM.
Then `CC(C)CNc1ccc2c(c1)/C(=N/O)C(=O)N2Cc1cc(F)cc2c1OCOC2` [Compound 311], with at least 1000 nM; and `C=CCCCN1C(=O)/C(=N\O)c2cc(Br)ccc21` [Compound 160], with at least 1000 nM; and `Cc1ccc(-c2ccc3c(c2)N(Cc2cc(F)cc4c2OCOC4)C(=O)/C3=N\O)cc1` [Compound 333], with at least 1000 nM.
In the case of `O=C(NCCN1CCCCC1)c1ccc2c(c1)N(Cc1cc(F)cc3c1OCOC3)C(=O)/C2=N\O` [Compound 298] it was at least 1000 nM; in that of `CC(C)CNC(=O)c1ccc2c(c1)N(Cc1cc(F)cc3c1OCOC3)C(=O)/C2=N\O` [Compound 287], at least 1000 nM; in that of `COc1cc(CN2C(=O)/C(=N\O)c3cc(C)cc(C)c32)cc(OC)c1` [Compound 94], at least 1000 nM.
Then `O=C1/C(=N\O)c2cc(F)ccc2N1Cc1csc(-c2ccc(Cl)cc2)n1` [Compound 86], with at least 1000 nM; and `COc1ccc2c(CN3C(=O)/C(=N/O)c4ccc(-c5ccsc5)cc43)cc(=O)oc2c1` [Compound 184], with at least 1000 nM.
Consider `Cc1cccc(CN2C(=O)/C(=N\O)c3cc([N+](=O)[O-])ccc32)c1` [Compound 34], for which the Ki is at least 1000 nM.
Turning to `O=C1/C(=N\O)c2ccccc2N1Cc1ccc([N+](=O)[O-])cc1` [Compound 18], the Ki is at least 1000 nM.
In the case of `Nc1ccc2c(c1)N(Cc1cc(F)cc3c1OCOC3)C(=O)/C2=N\O` [Compound 208] it was below 1000 nM; in that of `O=C1c2ccccc2C(=O)N1CCCN1C(=O)/C(=N\O)c2ccc(-c3ccccc3)cc21` [Compound 161], at least 1000 nM; in that of `COc1cc(CN2C(=O)/C(=N\O)c3c(-c4ccccc4)cccc32)cc(OC)c1` [Compound 200], at least 1000 nM.
Then `CC(=O)Nc1cccc(-c2ccc3c(c2)/C(=N/O)C(=O)N3Cc2cc(F)cc3c2OCOC3)c1` [Compound 279], with at least 1000 nM; and `O=C1/C(=N\O)c2ccccc2N1Cc1c(Cl)cccc1Cl` [Compound 2], with below 1000 nM.
As for `O=C1/C(=N\O)c2ccccc2N1Cc1cc(F)cc2c1OCOC2` [Compound 69], the Ki is below 1000 nM.
In the case of `Cc1cccc2c1/C(=N/O)C(=O)N2Cc1cc(F)cc2c1OCOC2` [Compound 301] it was below 1000 nM.

A word on the Ki: it is a measure of affinity in units of concentration, obtained from inhibition or displacement.
